Assay results taken from patent publication US20050090529A1, “3,5 Disubstituted indazole compounds with nitrogen-bearing 5-membered heterocycles, pharmaceutical compositions, and methods for mediating or inhibiting cell proliferation” (PFIZER INC, priority 2003, published 2005).

test system: Cyclin-dependent kinase; experiment: Cyclin-dependent kinase inhibition, % inhibition at 10 nM (library Examples 99-270); assay type: biochemical; conditions: 10 nM compound
Summary of the method: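 Enzyme starts the reaction at 30° C, which runs 20 min with 25 μM [³²P/³³P]ATP and protein substrate (pH 7.4, 10 mM MgCl2, 2% DMSO). After EDTA quench, membrane-bound labelled substrate is read by phosphorimaging following acid washes.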

SMILES	% Inhib @ 10 nM
CCNCc1cncc(-c2ccc3[nH]nc(-c4ncc(C(=O)N5CCN(CC6CCCO6)CC5)[nH]4)c3c2)c1C (centres unmarked) [Example 229, ethyl({4-methyl-5-[3-(5-{[4-(tetrahydrofuran-2-ylmethyl)piperazin-1-yl]carbonyl}-1H-imidazol-2-yl)-1H-indazol-5-yl]pyridin-3-yl}methyl)amine]	33%
CCNCc1cncc(-c2ccc3[nH]nc(-c4ncc(C(=O)N5CCN(c6ccc(F)cc6F)CC5)[nH]4)c3c2)c1C [Example 230]	74%
CCNCc1cncc(-c2ccc3[nH]nc(-c4ncc(C(=O)N5CCNC(=O)CC5)[nH]4)c3c2)c1C [Example 231, 1-{[2-(5-{5-[(ethylamino)methyl]-4-methylpyridin-3-yl}-1H-indazol-3-yl)-1H-imidazol-5-yl]carbonyl}-1,4-diazepan-5-one]	67%
CCNCc1cncc(-c2ccc3[nH]nc(-c4ncc(C(=O)N(CCOC)CCOC)[nH]4)c3c2)c1C [Example 232, 2-(5-{5-[(ethylamino)methyl]-4-methylpyridin-3-yl}-1H-indazol-3-yl)-N,N-bis(2-methoxyethyl)-1H-imidazole-5-carboxamide]	58%
CCNCc1cncc(-c2ccc3[nH]nc(-c4ncc(C(=O)N5CCCCC5Cc5ccccc5)[nH]4)c3c2)c1C (centres unmarked) [Example 233, {[5-(3-{5-[(2-benzylpipendin-1-yl)carbonyl]-1H-imidazal-2-yl)-1H-indazol-5-yl)-4-methylpyridin-3-yl]methyl}ethylamine]	32%
CCNCc1cncc(-c2ccc3[nH]nc(-c4ncc(C(=O)N5CCc6nc(C)sc6C5)[nH]4)c3c2)c1C [Example 234, ethyl{[4-methyl-5-(3-{5-[(2-methyl-6,7-dihydro[1,3]thiazolo[5,4-c]pyridin-5-(4H)-yl)carbonyl]-1H-imidazol-2-yl)-1H-indazol-5-yl)pyridin-3-yl]methyl}amine]	74%
CCNCc1cncc(-c2ccc3[nH]nc(-c4ncc(C(=O)NCc5ccc(C(C)(C)O)cc5)[nH]4)c3c2)c1C [Example 235, 2-(5-{5-[(ethylamino)methyl]-4-methylpyridin-3-yl}-1H-indazol-3-yl)-N-[4-(1-hydroxy-1-methylethyl)benzyl]-1H-imidazole-5-carboxamide]	63%
CCNCc1cncc(-c2ccc3[nH]nc(-c4ncc(C(=O)N5CCN(c6cccc7ccccc67)CC5)[nH]4)c3c2)c1C [Example 236, ethyl({4-methyl-5-[3-(5-{[4-(1-naphthyl)piperazin-1-yl]carbonyl}-1H-imidazol-2-yl)-1H-indazol-5-yl]pyridin-3-yl}methyl)amine]	74%
CCNCc1cncc(-c2ccc3[nH]nc(-c4ncc(C(=O)NCC5COCCO5)[nH]4)c3c2)c1C (centres unmarked) [Example 237, N-(1,4-dioxan-2-ylmethyl)-2-(5-{5-[(ethyamino)methy]-4-methypyridin-3-yl}-1H-indazol-3-yl)-1H-imidazole-5-carboxamide]	47%
CCNCc1cncc(-c2ccc3[nH]nc(-c4ncc(C(=O)NCc5ccc6[nH]c(C)cc6c5)[nH]4)c3c2)c1C [Example 238, 2-(5-{5-[(ethylamino)methy]-4-methylpyridin-3-yl}-1H-indazol-3-yl)-N-[(2-methyl-1H-indol-5-yl)methyl]-1H-imidazole-5-carboxamide]	75%
CCNCc1cncc(-c2ccc3[nH]nc(-c4ncc(C(=O)N5CCC(Cc6ccccc6)C5)[nH]4)c3c2)c1C (centres unmarked) [Example 239]	75%
CCNCc1cncc(-c2ccc3[nH]nc(-c4ncc(C(=O)N5CCC(S(C)(=O)=O)C5)[nH]4)c3c2)c1C (centres unmarked) [Example 240]	71%
CCNCc1cncc(-c2ccc3[nH]nc(-c4ncc(C(=O)N(C)CCS(C)(=O)=O)[nH]4)c3c2)c1C [Example 241]	59%
CCNCc1cncc(-c2ccc3[nH]nc(-c4ncc(C(=O)N5CCC(c6cccnc6)C5)[nH]4)c3c2)c1C (centres unmarked) [Example 242, ethyl{[4-methyl-5-(3-{5-[(3-pyridin-3-ylpyrrolidin-1-yl)carbonyl]-1H-imidazol-2-yl}-1H-indazol-5-yl)pyridin-3-yl]methyl}amine]	66%
CCNCc1cncc(-c2ccc3[nH]nc(-c4ncc(C(=O)NCCC5CCOCC5)[nH]4)c3c2)c1C [Example 243, 2-(5-{5-[(ethylamino)methyl]-4-methylpyridin-3-yl}-1H-indazol-3-yl)-N-[2-(tetrahydro-2H-pyran-4-yl)ethyl]-1H-imidazole-5-carboxamide]	34%
CCNCc1cncc(-c2ccc3[nH]nc(-c4ncc(C(=O)NC(CO)c5cccnc5)[nH]4)c3c2)c1C (centres unmarked) [Example 244]	55%

SMILES	% Inhib @ 10 nM
CCNCc1cncc(-c2ccc3[nH]nc(-c4ncc(C(=O)N(CCO)C5CCCCC5)[nH]4)c3c2)c1C [Example 245, N-cyclohexyl-2-(5-{5-[(ethylamino)methyl]-4-methylpyridin-3-yl}-1H-indazol-3-yl)-N-(2-hydroxyethyl)-1H-imidazole-5-carboxamide]	30%
CCNCc1cncc(-c2ccc3[nH]nc(-c4ncc(C(=O)N5CCN(CC(=O)N6CCCCC6)CC5)[nH]4)c3c2)c1C [Example 246, ethyl({4-methyl-5-[3-(5-{[4-(2-oxo-2-piperidin-1-ylethyl)piperazin-1-yl]carbonyl}-1H-imidazol-2-yl)-1H-indazol-5-yl]pyridin-3-yl}methyl)amine]	26%
CCNCc1cncc(-c2ccc3[nH]nc(-c4ncc(C(=O)N5CCC(n6c(C)nc7cnccc76)CC5)[nH]4)c3c2)c1C [Example 247, ethyl({4-methyl-5-[3-(5-{[4-(2-methyl-1H-imidazol[4,5-c]pyridin-1-yl)piperidin-1-yl]carbonyl}-1H-imidazol-2-yl)-1H-indazol-5-yl]pyridin-3-yl}methyl)amine]	26%
CCNCc1cncc(-c2ccc3[nH]nc(-c4ncc(C(=O)NCc5ccc(OC(F)F)cc5)[nH]4)c3c2)c1C [Example 248, N-[4-(difluoromethoxy)benzyl]-2-(5-{5-[(ethylamino)methyl]-4-methylpyridin-3-yl}-1H-indazol-3-yl)-1H-imidazole-5-carboxamide]	67%
CCNCc1cncc(-c2ccc3[nH]nc(-c4ncc(C(=O)NCC(O)COc5ccccc5)[nH]4)c3c2)c1C (centres unmarked) [Example 249, 2-(5-{5-[(ethylamino)methyl]-4-methylpyridin-3-yl}-1H-indazol-3-yl)-N-(2-hydroxy-3-phenoxypropyl)-1H-imidazole-5-carboxamide]	69%
CCNCc1cncc(-c2ccc3[nH]nc(-c4ncc(C(=O)N5CCC(c6ccn[nH]6)CC5)[nH]4)c3c2)c1C [Example 250, ethyl({4-methyl-5-[3-(5-{[4-(1H-pyrazol-5-yl)piperidin-1-yl]carbonyl}-H-imidazol-2-yl)-1 H-indazol-5-yl]pyridin-3-yl}methyl)amine]	62%
CCNCc1cncc(-c2ccc3[nH]nc(-c4ncc(C(=O)NCCn5cc(C(=O)NC(C)(C)C)nn5)[nH]4)c3c2)c1C [Example 251]	27%
CCNCc1cncc(-c2ccc3[nH]nc(-c4ncc(C(=O)N5CCC(c6ccnc(NCC)n6)CC5)[nH]4)c3c2)c1C [Example 252, N-ethyl-4-(1-{[2-(5-{5-[(ethylamino)methyl]-4-methylpyridin-3-yl}-1H-indazol-3-yl)-1H-imidazol-5-yl]carbonyl}piperidin-4-yl)pyrimidin-2-amine]	41%
CCNCc1cncc(-c2ccc3[nH]nc(-c4ncc(C(=O)NCCC5CCC(=O)N5Cc5ccccc5)[nH]4)c3c2)c1C (centres unmarked) [Example 253, N-[2-(1-benzyl-5-oxopyrrolidin-2-yl)ethyl]-2-(5-{5-[(ethylamina)methyl]-4-methylpyridin-3-yl}-1H-indazol-3-yl)-1H-imidazole-5-carboxamide]	18%
CCNCc1cncc(-c2ccc3[nH]nc(-c4ncc(C(=O)N5CCC6(CC5)CC(N5CCCC5)CO6)[nH]4)c3c2)c1C (centres unmarked) [Example 254, ethyl{[4-methyl-5-(3-{5-[(3-pyrrolidin-1-yl-1-oxa-8-azaspiro[4.5]dec-8-yl)carbonyl]-1H-imidazol-2-yl}-1H-indazol-5-yl)pyridin-3-yl]methyl}amine]	11%
CCNCc1cncc(-c2ccc3[nH]nc(-c4ncc(C(=O)NCc5nnc(-c6ccccc6OC)o5)[nH]4)c3c2)c1C [Example 255, 2-(5-{5-[(ethylamino)methyl]-4-methylpyridin-3-yl}-1H-indazol-3-yl)-N-{[5-(2-methoxyphenyl)-1,3,4-oxadiazol-2-yl]methyl}-1H-imidazole-5-carboxamide]	40%
CCNCc1cncc(-c2ccc3[nH]nc(-c4ncc(C(=O)N5CCC(c6nnc(C7CC7)o6)CC5)[nH]4)c3c2)c1C [Example 256, ({5-[3-(5-[[4-(5-cyclopropyl-1,3,4-oxadiazol-2-yl)piperidin-1-yl]carbonyl}-1H-imidazol-2-yl)-1H-indazol-5-yl]-4-methylpyridin-3-yl}methyl)ethylamine]	46%
CCNCc1cncc(-c2ccc3[nH]nc(-c4ncc(C(=O)N5CCC(c6nnc(CN(C)C)o6)CC5)[nH]4)c3c2)c1C [Example 257]	37%
CCNCc1cncc(-c2ccc3[nH]nc(-c4ncc(C(=O)N(CCC#N)CC5CCCO5)[nH]4)c3c2)c1C (centres unmarked) [Example 258]	49%
CCNCc1cncc(-c2ccc3[nH]nc(-c4ncc(C(=O)N5CCc6c(C(=O)NC)csc6C5)[nH]4)c3c2)c1C [Example 259, 6-{[2-(5-{5-[(ethylamino)methyl]-4-methylpyridin-3-yl}-1H-indazol-3-yl)-1H-imidazol-5-yl]carbonyl}-N-methyl-4,5,6,7-tetrahydrothieno[2,3-c]pyridine-3-carboxamlde]	69%
CCNCc1cncc(-c2ccc3[nH]nc(-c4ncc(C(=O)N5CCC(Cc6ncccn6)CC5)[nH]4)c3c2)c1C [Example 260, ethyl({4-methyl-5-[3-(5-{[4-(pyrimidin-2-ylmethyl)piperidin-1-yl]carbonyl}-1H-imidazol-2-yl)-1H-indazol-5-yl]pyridin-3-yl}methyl)amine]	33%
